According to US11261184B2, “[1,6]naphthyridine compounds and derivatives as CDK8/CDK19 inhibitors” (Boehringer Ingelheim International GmbH, priority 2017, dated 2022):

Experiments:
CDK8/cyclin C = CDK8/cyclin C (Homo sapiens (Human), UniProt P49336); assay: CDK8 biochemical assay (TR-FRET Kinase Tracer 236 displacement); assay type: binding; details: 5 nM CDK8/cyclin C, 10 nM Kinase Tracer 236, 60 min
Procedure: This assay is used to identify compounds which competitively interact with the binding pocket of the CDK8 kinase.
Assay-ready plates (ARPs; Proxiplate-384 PLUS, white, PerkinElmer) with compound solution in 100% DMSO are generated on an Access Labcyte Workstation with the Labcyte Echo 55x. 150 nL of compound solution are transferred per well in 11 concentrations in duplicates with serial 1:5 dilutions. The final DMSO concentration in the assay is 1%.
5 nM (final assay concentration) CDK8/cyclin C, 2 nM (final assay concentration) Biotin anti-His Tag Antibody and 2 nM (final assay concentration) LanthaScreen Eu-Streptavidin are mixed in assay buffer (50 mM HEPES pH 7.3, 10 mM MgCl2, 1 mM EGTA, 0.01% Brij-35, 0.05% BSA, 1 mM DTT) prior to use and kept at room temperature.
The assay runs on a fully automated robotic system. 10 μL of CDK8/cyclin C, Biotin anti-His Tag Antibody and LanthaScreen Eu-Streptavidin mix are dispensed into columns 1-24. 5 μL of 10 nM (final assay concentration) Kinase Tracer 236 solution in assay buffer are added to columns 1-23, 5 μL of assay buffer into column 24. Plates are kept at room temperature in a darkened incubator. After 60 min incubation time the signal is measured in a PerkinElmer Envision HTS Multilabel Reader using the TR-FRET specs from PerkinElmer.
Each plate contains 16 wells of a negative control (diluted DMSO instead of test compound; CDK8/cyclin C, Biotin anti-His Tag Antibody and LanthaScreen Eu-Streptavidin mix w Kinase Tracer 236; column 23) and 16 wells of a positive control (diluted DMSO instead of test compound; CDK8/cyclin C, Biotin anti-His Tag Antibody and LanthaScreen Eu-Streptavidin mix w/o Kinase Tracer 236; column 24). A known inhibitor of CDK8/cyclin C binding is used as internal control. IC50 values are calculated and analyzed in the MEGALAB IC50 application using a 4 parametric logistic model.
Table 4 includes IC50 values of example compounds determined using the above assay.

[1] = Metabolic (microsomal) stability assay, mouse liver microsomes; assay type: in vitro ADME; details: predicted clearance as percent of liver blood flow; mouse liver microsomes 0.5 mg/mL, 1 μM compound, 37° C.
Procedure: (§1) Metabolic (Microsomal) Stability Assay
(§2) The metabolic degradation of the test compound is assayed at 37° C. with pooled liver microsomes (mouse (MLM), rat (RLM) or human (HLM)). The final incubation volume of 74 μL per time point contains TRIS buffer (pH 7.5; 0.1 M), magnesium chloride (6.5 mM), microsomal protein (0.5 mg/mL for mouse/rat, 1 mg/mL for human specimens) and the test compound at a final concentration of 1 μM. Following a short preincubation period at 37° C., the reactions are initiated by addition of 8 μL beta-nicotinamide adenine dinucleotide phosphate, reduced form (NADPH, 10 mM) and terminated by transferring an aliquot into solvent after different time points. Additionally, the NADPH-independent degradation is monitored in incubations without NADPH, terminated at the last time point by addition of acetonitril. The quenched incubations are pelleted by centrifugation (1811 g, 5 min). An aliquot of the supernatant is assayed by LC-MS/MS for the amount of parent compound.
(§3) In vitro intrinsic clearance (CLint,in vitro) is calculated from the time course of the disappearance of the test drug during the microsomal incubation. Each plot is fitted to the first-order elimination rate constant as C(t)=C0*exp(−ke*t), where C(t) and C0 are the concentration of unchanged test drug at incubation time t and that at preincubation and ke is the disappearance rate constant of the unchanged drug. Subsequently, CLint,in vitro (μL·min^−1·amount protein) values are converted to CLint,in vitro (mL·min^−1·kg^−1) for the whole body. CLint,in vitro data are scaled up using physiological parameters. For better across species comparison the predicted clearance is expressed as percent of the liver blood flow [% QH] in the individual species. In general high stability (corresponding to low % QH) of the compounds across species is desired.

[2] = Metabolic (microsomal) stability assay, rat liver microsomes; assay type: in vitro ADME; details: predicted clearance as percent of liver blood flow; rat liver microsomes 0.5 mg/mL, 1 μM compound, 37° C.
Procedure: as §1, §2, §3

[3] = Metabolic (microsomal) stability assay, human liver microsomes; assay type: in vitro ADME; details: predicted clearance as percent of liver blood flow; human liver microsomes 1 mg/mL, 1 μM compound, 37° C.
Procedure: as §1, §2, §3

Sequence of CDK8/cyclin C (P49336 whole entry): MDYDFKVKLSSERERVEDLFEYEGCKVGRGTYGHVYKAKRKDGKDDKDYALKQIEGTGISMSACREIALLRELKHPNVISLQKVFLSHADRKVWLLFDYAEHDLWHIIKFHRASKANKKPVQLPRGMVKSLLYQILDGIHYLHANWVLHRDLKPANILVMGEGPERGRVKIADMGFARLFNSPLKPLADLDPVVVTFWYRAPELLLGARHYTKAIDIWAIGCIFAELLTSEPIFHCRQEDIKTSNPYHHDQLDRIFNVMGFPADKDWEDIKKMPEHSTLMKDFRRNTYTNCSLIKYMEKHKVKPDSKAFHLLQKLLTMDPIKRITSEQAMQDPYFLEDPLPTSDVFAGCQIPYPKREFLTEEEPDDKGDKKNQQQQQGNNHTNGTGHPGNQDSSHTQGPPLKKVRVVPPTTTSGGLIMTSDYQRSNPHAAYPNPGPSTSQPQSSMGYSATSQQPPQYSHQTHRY
Sequence of CDK8/cyclin C (P24863 whole entry partner): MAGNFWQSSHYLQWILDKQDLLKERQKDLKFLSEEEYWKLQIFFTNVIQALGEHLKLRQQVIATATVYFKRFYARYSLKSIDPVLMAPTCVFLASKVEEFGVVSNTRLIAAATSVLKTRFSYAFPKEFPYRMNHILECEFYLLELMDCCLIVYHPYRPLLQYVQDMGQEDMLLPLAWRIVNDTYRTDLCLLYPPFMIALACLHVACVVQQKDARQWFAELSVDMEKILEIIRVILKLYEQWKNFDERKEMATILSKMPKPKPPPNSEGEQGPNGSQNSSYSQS

Structure (SMILES): c1cc2nccc(Oc3ccc(N4CCCC4)cc3)c2cn1 [I-001]
- IC50 (CDK8/cyclin C): 3.6 nM

Structure (SMILES): Fc1cncc2c(Oc3ccc(N4CCCC4)cc3)ccnc12 [I-002]
- IC50 (CDK8/cyclin C): 3.4 nM

Structure (SMILES): Clc1cncc2c(Oc3ccc(N4CCCC4)cc3)ccnc12 [I-003]
- IC50 (CDK8/cyclin C): 2.4 nM

Structure (SMILES): Cc1cncc2c(Oc3ccc(N4CCCC4)cc3)ccnc12 [I-004]
- IC50 (CDK8/cyclin C): 3.7 nM

Structure (SMILES): Cc1nccc2nccc(Oc3ccc(N4CCCC4)cc3)c12 [I-005]
- IC50 (CDK8/cyclin C): 11.2 nM

Structure (SMILES): CN(C)C(=O)[C@H]1CCN(c2ccc(Oc3ccnc4ccncc34)cc2)C1 [I-006]
- IC50 (CDK8/cyclin C): 1.6 nM

Structure (SMILES): CN(C)C(=O)[C@H]1CCN(c2ccc(Oc3ccnc4c(Cl)cncc34)cc2)C1 [I-007]
- IC50 (CDK8/cyclin C): 1.3 nM
- MLM [% QH] [1]: 49 % QH
- RLM [% QH] [2]: 66 % QH
- HLM [% QH] [3]: <24 % QH

Structure (SMILES): CN(CCO)C(=O)[C@H]1CCN(c2ccc(Oc3ccnc4c(Cl)cncc34)cc2)C1 [I-010]
- IC50 (CDK8/cyclin C): 1.3 nM
- MLM [% QH] [1]: 57 % QH
- HLM [% QH] [3]: 50 % QH

Structure (SMILES): COCCN(C)C(=O)[C@H]1CCN(c2ccc(Oc3ccnc4c(Cl)cncc34)cc2)C1 [I-011]
- IC50 (CDK8/cyclin C): 1.5 nM

Structure (SMILES): CN1CCN(C(=O)[C@H]2CCN(c3ccc(Oc4ccnc5c(Cl)cncc45)cc3)C2)CC1 [I-012]
- IC50 (CDK8/cyclin C): 1.3 nM

Structure (SMILES): O=C([C@H]1CCN(c2ccc(Oc3ccnc4c(Cl)cncc34)cc2)C1)N1CCOCC1 [I-013]
- IC50 (CDK8/cyclin C): 1.2 nM
- MLM [% QH] [1]: 59 % QH
- HLM [% QH] [3]: 44 % QH

Structure (SMILES): Cc1cncc2c(Oc3ccc(N4CC[C@H](C(=O)N(C)C)C4)cc3)ccnc12 [I-014]
- IC50 (CDK8/cyclin C): 1.7 nM

Structure (SMILES): CN(C)C(=O)[C@H]1CCN(c2ccc(Oc3ccnc4c(F)cncc34)cc2)C1 [I-015]
- IC50 (CDK8/cyclin C): 1.5 nM
- MLM [% QH] [1]: <24 % QH
- RLM [% QH] [2]: 43 % QH
- HLM [% QH] [3]: <24 % QH

Structure (SMILES): CN1CCN(C(=O)[C@H]2CCN(c3ccc(Oc4ccnc5c(F)cncc45)cc3)C2)CC1 [I-016]
- IC50 (CDK8/cyclin C): 1.2 nM

Structure (SMILES): CN(CCO)C(=O)[C@H]1CCN(c2ccc(Oc3ccnc4c(F)cncc34)cc2)C1 [I-017, (S)-1-[4-(8-fluoro-[1,6]naphthyridin-4-yloxy)-phenyl]-pyrrolidine-3-carboxylic acid (2-hydroxy-ethyl)-methyl-amide]
- IC50 (CDK8/cyclin C): 1.8 nM
- MLM [% QH] [1]: <24 % QH
- RLM [% QH] [2]: 24 % QH
- HLM [% QH] [3]: <24 % QH

Structure (SMILES): CN(C)C(=O)[C@@H]1CCN(c2ccc(Oc3ccnc4c(Cl)cncc34)cc2)C1 [I-018]
- IC50 (CDK8/cyclin C): 1.2 nM
- MLM [% QH] [1]: 44 % QH
- RLM [% QH] [2]: 55 % QH
- HLM [% QH] [3]: 30 % QH

Structure (SMILES): CN(C)C(=O)[C@@H]1CCN(c2ccc(Oc3ccnc4c(F)cncc34)cc2)C1 [I-019]
- IC50 (CDK8/cyclin C): 1.7 nM
- MLM [% QH] [1]: 28 % QH
- RLM [% QH] [2]: 41 % QH
- HLM [% QH] [3]: <24 % QH

Structure (SMILES): CN(CCO)C(=O)[C@@H]1CCN(c2ccc(Oc3ccnc4c(F)cncc34)cc2)C1 [I-020]
- IC50 (CDK8/cyclin C): 1.4 nM
- MLM [% QH] [1]: <24 % QH
- RLM [% QH] [2]: <24 % QH
- HLM [% QH] [3]: <24 % QH

Structure (SMILES): CN1CCN(C(=O)[C@@H]2CCN(c3ccc(Oc4ccnc5c(F)cncc45)cc3)C2)CC1 [I-021]
- IC50 (CDK8/cyclin C): < 1 nM

Structure (SMILES): N[C@H]1CCN(c2ccc(Oc3ccnc4c(F)cncc34)cc2)C1 [I-022]
- IC50 (CDK8/cyclin C): 8.3 nM
- MLM [% QH] [1]: <24 % QH
- RLM [% QH] [2]: <24 % QH
- HLM [% QH] [3]: <24 % QH

Structure (SMILES): CC(=O)N[C@H]1CCN(c2ccc(Oc3ccnc4c(F)cncc34)cc2)C1 [I-023]
- IC50 (CDK8/cyclin C): 2.1 nM
- MLM [% QH] [1]: <24 % QH
- RLM [% QH] [2]: <24 % QH
- HLM [% QH] [3]: <24 % QH

Structure (SMILES): CC(=O)N(C)[C@H]1CCN(c2ccc(Oc3ccnc4c(F)cncc34)cc2)C1 [I-024]
- IC50 (CDK8/cyclin C): 1.4 nM
- MLM [% QH] [1]: <24 % QH
- RLM [% QH] [2]: <24 % QH
- HLM [% QH] [3]: <24 % QH

Structure (SMILES): O=C1CCCN1[C@H]1CCN(c2ccc(Oc3ccnc4c(F)cncc34)cc2)C1 [I-025]
- IC50 (CDK8/cyclin C): 1.6 nM

Structure (SMILES): CC(=O)N[C@@H]1CCN(c2ccc(Oc3ccnc4c(F)cncc34)cc2)C1 [I-026]
- IC50 (CDK8/cyclin C): 2.9 nM
- MLM [% QH] [1]: <24 % QH
- RLM [% QH] [2]: 25 % QH
- HLM [% QH] [3]: <24 % QH

Structure (SMILES): CC(=O)N1CCN(c2ccc(Oc3cc(N(C)C)nc4ccncc34)cc2)CC1 [I-027]
- IC50 (CDK8/cyclin C): 4.5 nM

Structure (SMILES): CN1CCN(c2ccc(Oc3ccnc4ccncc34)cc2)CC1 [I-028]
- IC50 (CDK8/cyclin C): 11.1 nM

Structure (SMILES): Fc1cncc2c(Oc3ccc(N4CCn5ccnc5C4)cc3)ccnc12 [I-029]
- IC50 (CDK8/cyclin C): 16.6 nM
- MLM [% QH] [1]: 36 % QH
- RLM [% QH] [2]: 57 % QH
- HLM [% QH] [3]: 29 % QH

Structure (SMILES): c1cc2nccc(Oc3ccc(N4CCOCC4)cc3)c2cn1 [I-030]
- IC50 (CDK8/cyclin C): 14 nM
- MLM [% QH] [1]: 58 % QH
- RLM [% QH] [2]: 60 % QH
- HLM [% QH] [3]: <24 % QH

Structure (SMILES): CC(=O)N1CCN(c2ccc(Oc3ccnc4ccncc34)cc2)CC1 [I-031]
- IC50 (CDK8/cyclin C): 4.7 nM
- MLM [% QH] [1]: 42 % QH
- RLM [% QH] [2]: 29 % QH
- HLM [% QH] [3]: 28 % QH

Structure (SMILES): CN(C)C(=O)C1CN(c2ccc(Oc3ccnc4c(F)cncc34)cc2)C1 [I-032]
- IC50 (CDK8/cyclin C): 2.1 nM
- MLM [% QH] [1]: <24 % QH
- RLM [% QH] [2]: <24 % QH
- HLM [% QH] [3]: 27 % QH

Structure (SMILES): CC(=O)NC1CN(c2ccc(Oc3ccnc4c(F)cncc34)cc2)C1 [I-033]
- IC50 (CDK8/cyclin C): 3.9 nM

Structure (SMILES): COc1cc(Oc2ccc(N3CCN(C(C)=O)CC3)cc2)c2cnccc2n1 [I-034]
- IC50 (CDK8/cyclin C): 14 nM

Structure (SMILES): CN1CCC(COc2ccc(Oc3ccnc4c(F)cncc34)cc2)C1=O (centres unmarked) [I-035]
- IC50 (CDK8/cyclin C): 3.7 nM
- MLM [% QH] [1]: <24 % QH
- RLM [% QH] [2]: 35 % QH
- HLM [% QH] [3]: <24 % QH

Structure (SMILES): CN(C)C(=O)CCOc1ccc(Oc2ccnc3c(F)cncc23)cc1 [I-036]
- IC50 (CDK8/cyclin C): 4.8 nM
- MLM [% QH] [1]: <24 % QH
- RLM [% QH] [2]: 32 % QH
- HLM [% QH] [3]: <24 % QH

Structure (SMILES): O=C1CCCN1CCOc1ccc(Oc2ccnc3c(F)cncc23)cc1 [I-037]
- IC50 (CDK8/cyclin C): 27 nM
- MLM [% QH] [1]: <24 % QH
- RLM [% QH] [2]: 47 % QH
- HLM [% QH] [3]: <24 % QH

Structure (SMILES): CC(=O)N(C)CCOc1ccc(Oc2ccnc3c(F)cncc23)cc1 [I-038]
- IC50 (CDK8/cyclin C): 6.6 nM

Structure (SMILES): Cc1cncc2c(Oc3ccc(-c4cnn(CC(=O)N(C)C)c4)cc3)ccnc12 [I-041]
- IC50 (CDK8/cyclin C): 5 nM
